In brackets after ≈: the same amount, converted by molar mass.
Tests used:
Test in all cases: in vitro antibacterial evaluation, MIC by broth dilution
Format in all cases: cell-based
Streptococcus sp. = details: broth dilution, 18 hours at 35° C.
Outline: (§1)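 MIC, the lowest antibiotic concentration preventing growth, was read across 64-0.06 μg/mL with 5×10^5 CFU/mL inoculum. Method followed NCCLS M7-A2 broth dilution using Mueller-Hinton II; Gram-positive strains covered recent methicillin-, penicillin- and/or vancomycin-resistant clinical isolates.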

Staphylococcus sp. = details: broth dilution, 18 hours at 35° C.
Outline: as §1

Enterococcus sp. = details: broth dilution, 18 hours at 35° C.
Outline: as §1

Escherichia coli = details: 18 hours at 35° C.
Outline: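 MIC is the lowest antibiotic concentration (tested 64-0.06 μg/mL) preventing growth of a 5×10^5 CFU/mL inoculum. Determined by broth dilution in Mueller-Hinton II medium following NCCLS standard M7-A2.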

- MIC Streptococcus agalactiae (GC 4564) (Streptococcus sp.): 8 µg/mL (≈ 5.38 µM)
- MIC Streptococcus pneumoniae (ATCC 6301) (Streptococcus sp.): 8 µg/mL (≈ 5.38 µM)
- MIC Streptococcus pneumoniae (GC 1894) (Streptococcus sp.): 4 µg/mL (≈ 2.69 µM)
- MIC Streptococcus pneumoniae (GC 4565) (Streptococcus sp.): 16 µg/mL (≈ 10.8 µM)
- MIC Streptococcus pyogenes (GC 4563) (Streptococcus sp.): 8 µg/mL (≈ 5.38 µM)
- MIC Streptococcus pneumoniae (ATCC 6301) (Streptococcus sp.; strain ATCC 6301): 8 µg/mL (≈ 5.38 µM)
- MIC Streptococcus pneumoniae (GC 1894) (Streptococcus sp.; strain GC 1894): 4 µg/mL (≈ 2.69 µM)
- MIC Streptococcus pyogenes (GC 4563) (Streptococcus sp.; strain GC 4563): 8 µg/mL (≈ 5.38 µM)
- MIC Streptococcus agalactiae (GC 4564) (Streptococcus sp.; strain GC 4564): 8 µg/mL (≈ 5.38 µM)
- MIC Streptococcus pneumoniae (GC 4565) (Streptococcus sp.; strain GC 4565): 16 µg/mL (≈ 10.8 µM)
- MIC Staphylococcus aureus (ATCC 29213) (Staphylococcus sp.; strain ATCC 29213): 32 µg/mL (≈ 21.5 µM)
- MIC Staphylococcus aureus (GC 1131) (Staphylococcus sp.; strain GC 1131): 32 µg/mL (≈ 21.5 µM)
- MIC Staphylococcus aureus (GC 3051) (Staphylococcus sp.; strain GC 3051): 32 µg/mL (≈ 21.5 µM)
- MIC Staphylococcus aureus (GC 3053) (Staphylococcus sp.; strain GC 3053): 64 µg/mL (≈ 43.1 µM)
- MIC Staphylococcus aureus (GC 4541) (Staphylococcus sp.; strain GC 4541): 32 µg/mL (≈ 21.5 µM)
- MIC Staphylococcus aureus (GC 4542) (Staphylococcus sp.; strain GC 4542): 32 µg/mL (≈ 21.5 µM)
- MIC Staphylococcus aureus-SMITH (GC 4543) (Staphylococcus sp.; strain GC 4543): 32 µg/mL (≈ 21.5 µM)
- MIC Staphylococcus aureus (GC 4544) (Staphylococcus sp.; strain GC 4544): 32 µg/mL (≈ 21.5 µM)
- MIC Staphylococcus aureus (GC 4545) (Staphylococcus sp.; strain GC 4545): 32 µg/mL (≈ 21.5 µM)
- MIC Coagulase Negative Staphylococcus (GC 4547) (Staphylococcus sp.; strain GC 4547): 32 µg/mL (≈ 21.5 µM)
- MIC Coagulase Negative Staphylococcus (GC 4548) (Staphylococcus sp.; strain GC 4548): 32 µg/mL (≈ 21.5 µM)
- MIC Coagulase Negative Staphylococcus (GC 4549) (Staphylococcus sp.; strain GC 4549): 32 µg/mL (≈ 21.5 µM)
- MIC Coagulase Negative Staphylococcus (GC 4551) (Staphylococcus sp.; strain GC 4551): 32 µg/mL (≈ 21.5 µM)
- MIC Coagulase Negative Staphylococcus (GC 6257) (Staphylococcus sp.; strain GC 6257): 8 µg/mL (≈ 5.38 µM)
- MIC Enterococcus avium (GC 4558) (Enterococcus sp.; Enterococcus avium (GC 4558)): 32 µg/mL (≈ 21.5 µM)
- MIC Enterococcus faecalis (ATCC 29212) (Enterococcus sp.; Enterococcus faecalis (ATCC 29212)): 64 µg/mL (≈ 43.1 µM)
- MIC Enterococcus faecalis (GC 4552) (Enterococcus sp.; Enterococcus faecalis (GC 4552)): 64 µg/mL (≈ 43.1 µM)
- MIC Enterococcus faecalis (GC 4553) (Enterococcus sp.; Enterococcus faecalis (GC 4553)): 32 µg/mL (≈ 21.5 µM)
- MIC Enterococcus faecalis (GC 4554) (Enterococcus sp.; Enterococcus faecalis (GC 4554)): 64 µg/mL (≈ 43.1 µM)
- MIC Enterococcus faecalis (GC 6189) (Enterococcus sp.; Enterococcus faecalis (GC 6189)): 64 µg/mL (≈ 43.1 µM)
- MIC Enterococcus faecium (GC 2243) (Enterococcus sp.; Enterococcus faecium (GC 2243)): 32 µg/mL (≈ 21.5 µM)
- MIC Enterococcus faecium (GC 4556) (Enterococcus sp.; Enterococcus faecium (GC 4556)): 64 µg/mL (≈ 43.1 µM)
- MIC Enterococcus faecium (GC 4557) (Enterococcus sp.; Enterococcus faecium (GC 4557)): 16 µg/mL (≈ 10.8 µM)
- MIC Enterococcus avium (GC 4558) (Enterococcus sp.): 32 µg/mL (≈ 21.5 µM)
- MIC Enterococcus faecalis (ATCC 29212) (Enterococcus sp.): 64 µg/mL (≈ 43.1 µM)
- MIC Enterococcus faecalis (GC 2242) (Enterococcus sp.): 32 µg/mL (≈ 21.5 µM)
- MIC Enterococcus faecalis (GC 2691) (Enterococcus sp.): 64 µg/mL (≈ 43.1 µM)
- MIC Enterococcus faecalis (GC 3059) (Enterococcus sp.): 64 µg/mL (≈ 43.1 µM)
- MIC Enterococcus faecalis (GC 4552) (Enterococcus sp.): 64 µg/mL (≈ 43.1 µM)
- MIC Enterococcus faecalis (GC 4553) (Enterococcus sp.): 32 µg/mL (≈ 21.5 µM)
- MIC Enterococcus faecalis (GC 4554) (Enterococcus sp.): 64 µg/mL (≈ 43.1 µM)
- MIC Enterococcus faecalis (GC 6189) (Enterococcus sp.): 64 µg/mL (≈ 43.1 µM)
- MIC Enterococcus faecium (GC 2243) (Enterococcus sp.): 32 µg/mL (≈ 21.5 µM)
- MIC Enterococcus faecium (GC 4556) (Enterococcus sp.): 64 µg/mL (≈ 43.1 µM)
- MIC Enterococcus faecium (GC 4557) (Enterococcus sp.): 16 µg/mL (≈ 10.8 µM)
- MIC Enterococcus faecalis (GC 2242) (Enterococcus sp.; strain GC 2242): 32 µg/mL (≈ 21.5 µM)
- MIC Enterococcus faecalis (GC 2691) (Enterococcus sp.; strain GC 2691): 64 µg/mL (≈ 43.1 µM)
- MIC Enterococcus faecalis (GC 3059) (Enterococcus sp.; strain GC 3059): 64 µg/mL (≈ 43.1 µM)
- MIC Escherichia coli (ATCC 25922) (Escherichia coli): >64 µg/mL
- MIC Escherichia coli (GC 4559) (Escherichia coli): >64 µg/mL
- MIC Escherichia coli (GC 4560) (Escherichia coli): 8 µg/mL (≈ 5.38 µM)
Structure (SMILES): CC(c1ccccc1)C1NC(=O)CNC(=O)C(CO)NC(=O)C(CC2CN(Cc3ccccc3)C(=N)N2C2OC(CO)C(O)C(O)C2O)NC(=O)C(CC2CNC(=N)N2)NC(=O)C(Cc2ccc(OC3OC(CO)C(OC4OC5COC6(OC5C(O)C4O)C4CC5CC(C4)CC6C5)C(O)C3O)cc2)NC1=O (stereo not drawn) [Example 80, Cyclo[3-(2-iminoimidazolidin-4-yl)alanyl-3-(1-benzyl-3-hexopyranosyl-2-iminoimidazolidin-4-yl)alanylserylglycyl-β-methylphenylalanyl-O-[4-O-[4,6-O-(2-adamantylidene)hexopyranosyl]hexopyranosyl]tyrosyl]]
- MIC Staphylococcus haemolyticus (GC 4546) (Staphylococcus sp.; strain GC 4546): 32 µg/mL (≈ 21.5 µM)

— patent US6914045B2, “Glycopeptide antibiotics” (Wyeth Holdings Corporation, priority 2001, dated 2005)
